Experimental data: ChEMBL document CHEMBL1681728, “An automated, polymer-assisted strategy for the preparation of urea and thiourea derivatives of 15-membered azalides as potential antimalarial chemotherapeutics” (Bioorg Med Chem, 2011)

Tests used:
Assay type in all cases: functional, organism-based
Plasmodium falciparum [1] = assay: Antimalarial activity against multidrug-resistant Plasmodium falciparum TM91C235 assessed as inhibition of [3H]hypoxanthine incorporation after 96 hrs by microtiter plate scintillation counting
Plasmodium falciparum [2] = assay: Antimalarial activity against chloroquine-,pyrimethamine-resistant Plasmodium falciparum W2 assessed as inhibition of [3H]hypoxanthine incorporation after 96 hrs by microtiter plate scintillation counting
Plasmodium falciparum [3] = assay: Antimalarial activity against chloroquine-sensitive Plasmodium falciparum D6 assessed as inhibition of [3H]hypoxanthine incorporation after 96 hrs by microtiter plate scintillation counting

CC[C@H]1OC(=O)[C@H](C)[C@@H](O[C@H]2C[C@@](C)(OC)[C@@H](O)[C@H](C)O2)[C@H](C)[C@@H](O[C@@H]2O[C@H](C)C[C@H](N(C)C)[C@H]2O)[C@](C)(O)C[C@@H](C)CN(CCCNC(=O)Nc2cc(C)oc2C(F)(F)F)[C@H](C)[C@@H](O)[C@]1(C)O
IC50 (Plasmodium falciparum [1]): 320 nM
IC50 (Plasmodium falciparum [2]): 310 nM
IC50 (Plasmodium falciparum [3]): 361 nM

CC[C@H]1OC(=O)[C@H](C)[C@@H](O[C@H]2C[C@@](C)(OC)[C@@H](O)[C@H](C)O2)[C@H](C)[C@@H](O[C@@H]2O[C@H](C)C[C@H](N(C)C)[C@H]2O)[C@](C)(O)C[C@@H](C)CN(CCCNC(=O)Nc2ccc(C)cc2)[C@H](C)[C@@H](O)[C@]1(C)O
IC50 (Plasmodium falciparum [1]): 139 nM
IC50 (Plasmodium falciparum [2]): 88.7 nM
IC50 (Plasmodium falciparum [3]): 330 nM

CC[C@H]1OC(=O)[C@H](C)[C@@H](O[C@H]2C[C@@](C)(OC)[C@@H](O)[C@H](C)O2)[C@H](C)[C@@H](O[C@@H]2O[C@H](C)C[C@H](N(C)C)[C@H]2O)[C@](C)(O)C[C@@H](C)CN(CCCNC(=S)NCCCl)[C@H](C)[C@@H](O)[C@]1(C)O
IC50 (Plasmodium falciparum [1]): 12800 nM
IC50 (Plasmodium falciparum [2]): 12800 nM
IC50 (Plasmodium falciparum [3]): 12800 nM

CC[C@H]1OC(=O)[C@H](C)[C@@H](O[C@H]2C[C@@](C)(OC)[C@@H](O)[C@H](C)O2)[C@H](C)[C@@H](O[C@@H]2O[C@H](C)C[C@H](N(C)C)[C@H]2O)[C@](C)(O)C[C@@H](C)CN(CCCNC(=S)Nc2cccc(F)c2)[C@H](C)[C@@H](O)[C@]1(C)O
IC50 (Plasmodium falciparum [1]): 116 nM
IC50 (Plasmodium falciparum [2]): 200 nM
IC50 (Plasmodium falciparum [3]): 511 nM

CC[C@H]1OC(=O)[C@H](C)[C@@H](O[C@H]2C[C@@](C)(OC)[C@@H](O)[C@H](C)O2)[C@H](C)[C@@H](O[C@@H]2O[C@H](C)C[C@H](N(C)C)[C@H]2O)[C@](C)(O)C[C@@H](C)CN(CCCNC(=S)Nc2ccc3c(c2)OCO3)[C@H](C)[C@@H](O)[C@]1(C)O
IC50 (Plasmodium falciparum [1]): 173 nM
IC50 (Plasmodium falciparum [2]): 182 nM
IC50 (Plasmodium falciparum [3]): 329 nM

CC[C@H]1OC(=O)[C@H](C)[C@@H](O[C@H]2C[C@@](C)(OC)[C@@H](O)[C@H](C)O2)[C@H](C)[C@@H](O[C@@H]2O[C@H](C)C[C@H](N(C)C)[C@H]2O)[C@](C)(O)C[C@@H](C)CN(CCCNC(=O)Nc2ccc(C(C)=O)cc2)[C@H](C)[C@@H](O)[C@]1(C)O
IC50 (Plasmodium falciparum [1]): 398 nM
IC50 (Plasmodium falciparum [2]): 709 nM
IC50 (Plasmodium falciparum [3]): 1730 nM

CC[C@H]1OC(=O)[C@H](C)[C@@H](O[C@H]2C[C@@](C)(OC)[C@@H](O)[C@H](C)O2)[C@H](C)[C@@H](O[C@@H]2O[C@H](C)C[C@H](N(C)C)[C@H]2O)[C@](C)(O)C[C@@H](C)CN(CCCNC(=O)Nc2cccc(C(F)(F)F)c2)[C@H](C)[C@@H](O)[C@]1(C)O
IC50 (Plasmodium falciparum [1]): 72.8 nM
IC50 (Plasmodium falciparum [2]): 135 nM
IC50 (Plasmodium falciparum [3]): 257 nM

CC[C@H]1OC(=O)[C@H](C)[C@@H](O[C@H]2C[C@@](C)(OC)[C@@H](O)[C@H](C)O2)[C@H](C)[C@@H](O[C@@H]2O[C@H](C)C[C@H](N(C)C)[C@H]2O)[C@](C)(O)C[C@@H](C)CN(CCCNC(=O)Nc2cc(F)ccc2C)[C@H](C)[C@@H](O)[C@]1(C)O
IC50 (Plasmodium falciparum [1]): 117 nM
IC50 (Plasmodium falciparum [2]): 53.2 nM
IC50 (Plasmodium falciparum [3]): 396 nM

CC[C@H]1OC(=O)[C@H](C)[C@@H](O[C@H]2C[C@@](C)(OC)[C@@H](O)[C@H](C)O2)[C@H](C)[C@@H](O[C@@H]2O[C@H](C)C[C@H](N(C)C)[C@H]2O)[C@](C)(O)C[C@@H](C)CN(CCCNC(=S)NCc2ccc3c(c2)OCO3)[C@H](C)[C@@H](O)[C@]1(C)O
IC50 (Plasmodium falciparum [1]): 216 nM
IC50 (Plasmodium falciparum [2]): 137 nM
IC50 (Plasmodium falciparum [3]): 319 nM

CC[C@H]1OC(=O)[C@H](C)[C@@H](O[C@H]2C[C@@](C)(OC)[C@@H](O)[C@H](C)O2)[C@H](C)[C@@H](O[C@@H]2O[C@H](C)C[C@H](N(C)C)[C@H]2O)[C@](C)(O)C[C@@H](C)CN(CCCNC(=O)Nc2c(C)noc2C)[C@H](C)[C@@H](O)[C@]1(C)O
IC50 (Plasmodium falciparum [1]): 12800 nM
IC50 (Plasmodium falciparum [2]): 12800 nM
IC50 (Plasmodium falciparum [3]): 12800 nM

CC[C@H]1OC(=O)[C@H](C)[C@@H](O[C@H]2C[C@@](C)(OC)[C@@H](O)[C@H](C)O2)[C@H](C)[C@@H](O[C@@H]2O[C@H](C)C[C@H](N(C)C)[C@H]2O)[C@](C)(O)C[C@@H](C)CN(CCCNC(=S)Nc2ccc(C#N)cc2)[C@H](C)[C@@H](O)[C@]1(C)O
IC50 (Plasmodium falciparum [1]): 78.2 nM
IC50 (Plasmodium falciparum [2]): 50 nM
IC50 (Plasmodium falciparum [3]): 132 nM

CC[C@H]1OC(=O)[C@H](C)[C@@H](O[C@H]2C[C@@](C)(OC)[C@@H](O)[C@H](C)O2)[C@H](C)[C@@H](O[C@@H]2O[C@H](C)C[C@H](N(C)C)[C@H]2O)[C@](C)(O)C[C@@H](C)CN(CCCNC(=S)Nc2ccc(-n3cccn3)cc2)[C@H](C)[C@@H](O)[C@]1(C)O
IC50 (Plasmodium falciparum [1]): 101 nM
IC50 (Plasmodium falciparum [2]): 109 nM
IC50 (Plasmodium falciparum [3]): 160 nM

CCC(C)NC(=O)NCCCN1C[C@H](C)C[C@@](C)(O)[C@H](O[C@@H]2O[C@H](C)C[C@H](N(C)C)[C@H]2O)[C@@H](C)[C@H](O[C@H]2C[C@@](C)(OC)[C@@H](O)[C@H](C)O2)[C@@H](C)C(=O)O[C@H](CC)[C@@](C)(O)[C@H](O)[C@H]1C (stereo partly drawn)
IC50 (Plasmodium falciparum [1]): 1180 nM
IC50 (Plasmodium falciparum [2]): 489 nM
IC50 (Plasmodium falciparum [3]): 14000 nM

CC[C@H]1OC(=O)[C@H](C)[C@@H](O[C@H]2C[C@@](C)(OC)[C@@H](O)[C@H](C)O2)[C@H](C)[C@@H](O[C@@H]2O[C@H](C)C[C@H](N(C)C)[C@H]2O)[C@](C)(O)C[C@@H](C)CN(CCCNC(=S)NCc2ccco2)[C@H](C)[C@@H](O)[C@]1(C)O
IC50 (Plasmodium falciparum [1]): 240 nM
IC50 (Plasmodium falciparum [2]): 449 nM
IC50 (Plasmodium falciparum [3]): 329 nM

CC[C@H]1OC(=O)[C@H](C)[C@@H](O[C@H]2C[C@@](C)(OC)[C@@H](O)[C@H](C)O2)[C@H](C)[C@@H](O[C@@H]2O[C@H](C)C[C@H](N(C)C)[C@H]2O)[C@](C)(O)C[C@@H](C)CN(CCCNC(=S)Nc2ccc(Cl)cc2)[C@H](C)[C@@H](O)[C@]1(C)O
IC50 (Plasmodium falciparum [1]): 108 nM
IC50 (Plasmodium falciparum [2]): 53.4 nM
IC50 (Plasmodium falciparum [3]): 188 nM

CC[C@H]1OC(=O)[C@H](C)[C@@H](O[C@H]2C[C@@](C)(OC)[C@@H](O)[C@H](C)O2)[C@H](C)[C@@H](O[C@@H]2O[C@H](C)C[C@H](N(C)C)[C@H]2O)[C@](C)(O)C[C@@H](C)CN(CCCNC(=S)NCC23CC4CC(CC(C4)C2)C3)[C@H](C)[C@@H](O)[C@]1(C)O
IC50 (Plasmodium falciparum [1]): 152 nM
IC50 (Plasmodium falciparum [2]): 210 nM
IC50 (Plasmodium falciparum [3]): 553 nM

CC[C@H]1OC(=O)[C@H](C)[C@@H](O[C@H]2C[C@@](C)(OC)[C@@H](O)[C@H](C)O2)[C@H](C)[C@@H](O[C@@H]2O[C@H](C)C[C@H](N(C)C)[C@H]2O)[C@](C)(O)C[C@@H](C)CN(CCCNC(=O)Nc2cccc(SC)c2)[C@H](C)[C@@H](O)[C@]1(C)O
IC50 (Plasmodium falciparum [1]): 137 nM
IC50 (Plasmodium falciparum [2]): 73.9 nM
IC50 (Plasmodium falciparum [3]): 332 nM

CC[C@H]1OC(=O)[C@H](C)[C@@H](O[C@H]2C[C@@](C)(OC)[C@@H](O)[C@H](C)O2)[C@H](C)[C@@H](O[C@@H]2O[C@H](C)C[C@H](N(C)C)[C@H]2O)[C@](C)(O)C[C@@H](C)CN(CCCNC(=S)Nc2ccc(S(=O)(=O)N3CCCCC3)cc2)[C@H](C)[C@@H](O)[C@]1(C)O
IC50 (Plasmodium falciparum [1]): 68 nM
IC50 (Plasmodium falciparum [2]): 53 nM
IC50 (Plasmodium falciparum [3]): 174 nM

CC[C@H]1OC(=O)[C@H](C)[C@@H](O[C@H]2C[C@@](C)(OC)[C@@H](O)[C@H](C)O2)[C@H](C)[C@@H](O[C@@H]2O[C@H](C)C[C@H](N(C)C)[C@H]2O)[C@](C)(O)C[C@@H](C)CN(CCCNC(=S)Nc2ccc(F)cc2)[C@H](C)[C@@H](O)[C@]1(C)O
IC50 (Plasmodium falciparum [1]): 139 nM
IC50 (Plasmodium falciparum [2]): 72.8 nM
IC50 (Plasmodium falciparum [3]): 320 nM

CC[C@H]1OC(=O)[C@H](C)[C@@H](O[C@H]2C[C@@](C)(OC)[C@@H](O)[C@H](C)O2)[C@H](C)[C@@H](O[C@@H]2O[C@H](C)C[C@H](N(C)C)[C@H]2O)[C@](C)(O)C[C@@H](C)CN(CCCNC(=O)Nc2ccc3c(c2)CCC3)[C@H](C)[C@@H](O)[C@]1(C)O
IC50 (Plasmodium falciparum [1]): 96.2 nM
IC50 (Plasmodium falciparum [2]): 73.6 nM
IC50 (Plasmodium falciparum [3]): 266 nM

CC[C@H]1OC(=O)[C@H](C)[C@@H](O[C@H]2C[C@@](C)(OC)[C@@H](O)[C@H](C)O2)[C@H](C)[C@@H](O[C@@H]2O[C@H](C)C[C@H](N(C)C)[C@H]2O)[C@](C)(O)C[C@@H](C)CN(CCCNC(=O)Nc2ccccc2-c2ccccc2)[C@H](C)[C@@H](O)[C@]1(C)O
IC50 (Plasmodium falciparum [1]): 137 nM
IC50 (Plasmodium falciparum [2]): 202 nM
IC50 (Plasmodium falciparum [3]): 254 nM

CC[C@H]1OC(=O)[C@H](C)[C@@H](O[C@H]2C[C@@](C)(OC)[C@@H](O)[C@H](C)O2)[C@H](C)[C@@H](O[C@@H]2O[C@H](C)C[C@H](N(C)C)[C@H]2O)[C@](C)(O)C[C@@H](C)CN(CCCNC(=S)Nc2sc3c(c2C(=O)OC)CCCC3)[C@H](C)[C@@H](O)[C@]1(C)O
IC50 (Plasmodium falciparum [1]): 407 nM
IC50 (Plasmodium falciparum [2]): 229 nM
IC50 (Plasmodium falciparum [3]): 825 nM

CC[C@H]1OC(=O)[C@H](C)[C@@H](O[C@H]2C[C@@](C)(OC)[C@@H](O)[C@H](C)O2)[C@H](C)[C@@H](O[C@@H]2O[C@H](C)C[C@H](N(C)C)[C@H]2O)[C@](C)(O)C[C@@H](C)CN(CCCNC(=S)N[C@H]2CCCC[C@H]2OCc2ccccc2)[C@H](C)[C@@H](O)[C@]1(C)O
IC50 (Plasmodium falciparum [1]): 126 nM
IC50 (Plasmodium falciparum [2]): 274 nM
IC50 (Plasmodium falciparum [3]): 645 nM

CC[C@H]1OC(=O)[C@H](C)[C@@H](O[C@H]2C[C@@](C)(OC)[C@@H](O)[C@H](C)O2)[C@H](C)[C@@H](O[C@@H]2O[C@H](C)C[C@H](N(C)C)[C@H]2O)[C@](C)(O)C[C@@H](C)CN(CCCNC(=S)Nc2cc(Cl)cc(Cl)c2)[C@H](C)[C@@H](O)[C@]1(C)O
IC50 (Plasmodium falciparum [1]): 55.4 nM
IC50 (Plasmodium falciparum [2]): 42.5 nM
IC50 (Plasmodium falciparum [3]): 116 nM

CC[C@H]1OC(=O)[C@H](C)[C@@H](O[C@H]2C[C@@](C)(OC)[C@@H](O)[C@H](C)O2)[C@H](C)[C@@H](O[C@@H]2O[C@H](C)C[C@H](N(C)C)[C@H]2O)[C@](C)(O)C[C@@H](C)CN(CCCNC(=O)Nc2ccc(OC)c(OC3CCCC3)c2)[C@H](C)[C@@H](O)[C@]1(C)O
IC50 (Plasmodium falciparum [1]): 138 nM
IC50 (Plasmodium falciparum [2]): 201 nM
IC50 (Plasmodium falciparum [3]): 445 nM

CC[C@H]1OC(=O)[C@H](C)[C@@H](O[C@H]2C[C@@](C)(OC)[C@@H](O)[C@H](C)O2)[C@H](C)[C@@H](O[C@@H]2O[C@H](C)C[C@H](N(C)C)[C@H]2O)[C@](C)(O)C[C@@H](C)CN(CCCNC(=S)NCC2CC3CCC2C3)[C@H](C)[C@@H](O)[C@]1(C)O (stereo partly drawn)
IC50 (Plasmodium falciparum [1]): 102 nM
IC50 (Plasmodium falciparum [2]): 46.5 nM
IC50 (Plasmodium falciparum [3]): 249 nM
